Reference: the Kinase Knowledgebase extract (Sharma et al. 2016)
Converted amounts (≈) assume the structure as drawn.

These compounds were tested against EGFR (UniProt P00533).
Sequence of EGFR (P00533 whole entry, looked up): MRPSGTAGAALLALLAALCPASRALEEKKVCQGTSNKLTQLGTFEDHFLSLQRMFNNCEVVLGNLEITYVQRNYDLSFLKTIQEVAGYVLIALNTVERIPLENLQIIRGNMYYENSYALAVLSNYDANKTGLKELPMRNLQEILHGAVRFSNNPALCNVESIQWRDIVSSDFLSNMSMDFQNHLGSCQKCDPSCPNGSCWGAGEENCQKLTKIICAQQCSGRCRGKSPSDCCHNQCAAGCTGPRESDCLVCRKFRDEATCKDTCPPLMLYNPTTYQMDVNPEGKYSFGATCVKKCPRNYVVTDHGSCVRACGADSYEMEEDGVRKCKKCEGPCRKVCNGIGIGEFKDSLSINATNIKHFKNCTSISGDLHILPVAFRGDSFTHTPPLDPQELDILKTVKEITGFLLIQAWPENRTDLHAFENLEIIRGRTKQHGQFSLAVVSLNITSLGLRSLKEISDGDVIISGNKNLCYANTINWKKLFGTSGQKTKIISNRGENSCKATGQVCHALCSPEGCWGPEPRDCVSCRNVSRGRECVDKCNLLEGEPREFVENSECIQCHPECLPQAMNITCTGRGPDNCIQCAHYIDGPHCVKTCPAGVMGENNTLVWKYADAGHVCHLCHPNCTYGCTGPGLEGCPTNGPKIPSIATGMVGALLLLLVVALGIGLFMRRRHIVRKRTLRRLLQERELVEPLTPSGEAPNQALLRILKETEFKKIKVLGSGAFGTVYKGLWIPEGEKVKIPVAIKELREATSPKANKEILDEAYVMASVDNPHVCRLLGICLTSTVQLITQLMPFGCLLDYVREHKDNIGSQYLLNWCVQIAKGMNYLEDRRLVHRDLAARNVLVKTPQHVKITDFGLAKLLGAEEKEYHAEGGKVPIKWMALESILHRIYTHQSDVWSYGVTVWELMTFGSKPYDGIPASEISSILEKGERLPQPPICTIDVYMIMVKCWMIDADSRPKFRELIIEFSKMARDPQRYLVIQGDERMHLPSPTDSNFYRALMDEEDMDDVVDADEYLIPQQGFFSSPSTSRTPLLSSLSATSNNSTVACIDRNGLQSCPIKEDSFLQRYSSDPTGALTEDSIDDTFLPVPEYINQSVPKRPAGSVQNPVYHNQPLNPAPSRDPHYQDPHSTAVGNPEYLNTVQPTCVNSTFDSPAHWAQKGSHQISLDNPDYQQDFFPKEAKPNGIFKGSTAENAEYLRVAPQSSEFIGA

Row | SMILES | IC50
1 | O=c1[nH]c2ccccc2n1-c1ncnc(Nc2cccc([N+](=O)[O-])c2)n1 | > 4.5 µg/mL
2 | NC(=O)c1cccc(Nc2ncnc(-c3cccs3)n2)c1 | > 4.5 µg/mL
3 | COc1ccccc1Nc1ncnc(-n2cccc2)n1 | > 4.5 µg/mL
4 | Cc1cccc(Nc2ncnc(Nc3cc(-c4ccccc4)n[nH]3)n2)c1 | < 0.4 µg/mL
5 | COc1ccc(Nc2ncnc(Nc3ccc(Br)cc3F)n2)cc1OC | 2.4 to 3.5 µg/mL (≈ 5.71 to 8.33 µM)
6 | Cc1ccc(Nc2ncnc(N)n2)cc1 | > 4.5 µg/mL
7 | Clc1cc(Nc2ncnc(Nc3ccc4c(cnn4Cc4ccccc4)c3)n2)cc(Cl)c1Cl | 0.4 to 2.4 µg/mL (≈ 0.805 to 4.83 µM)
8 | O=C(O)/C=C/c1ccc(Nc2ncnc(Nc3cc(-c4ccco4)[nH]n3)n2)cc1 | < 0.4 µg/mL
9 | COc1cc(Nc2ncnc(-n3c(Nc4cccc(C(=O)O)c4)nc4ccccc43)n2)cc(OC)c1OC | 3.5 to 4.5 µg/mL (≈ 6.82 to 8.76 µM)
10 | Cc1cccc(Nc2ncnc(Nc3ccc4[nH]ccc4c3)n2)c1 | < 0.4 µg/mL
11 | COc1cc(Nc2ncnc(-n3c(N)nc4cc(C(F)(F)F)ccc43)n2)cc(OC)c1OC.COc1cc(Nc2ncnc(-n3c(N)nc4ccc(C(F)(F)F)cc43)n2)cc(OC)c1OC | > 4.5 µg/mL
12 | COC(=O)c1ccc(-c2cc(Nc3ncnc(NCCCO)n3)[nH]n2)cc1 | > 4.5 µg/mL
13 | COc1cc(Nc2ncnc(-c3cccnc3NCc3ccc(F)cc3)n2)cc(OC)c1OCCN1CCOCC1 | 2.4 to 3.5 µg/mL (≈ 4.27 to 6.23 µM)
14 | COc1cc(Nc2ncnc(-n3c(Nc4ccc(C(C)C)cc4)nc4ccccc43)n2)cc(OC)c1OC | > 4.5 µg/mL
15 | Fc1ccccc1Nc1ncnc(-c2ccccc2)n1 | > 4.5 µg/mL
16 | Nc1nc2ccccc2n1-c1ncnc(Nc2ccc(S(N)(=O)=O)cc2)n1 | > 4.5 µg/mL
17 | Nc1ncnc(Nc2cccc(C(F)(F)F)c2)n1 | > 4.5 µg/mL
18 | CCC(Nc1nc2ccccc2n1-c1ncnc(Nc2cc(OC)c(OC)c(OC)c2)n1)c1ccccc1 (centres undefined) | 0.4 to 2.4 µg/mL (≈ 0.782 to 4.69 µM)
19 | COc1ccc(CNc2nc3cc(OC)ccc3n2-c2ncnc(Nc3cc(OC)c(OC)c(OC)c3)n2)cc1.COc1ccc(CNc2nc3ccc(OC)cc3n2-c2ncnc(Nc3cc(OC)c(OC)c(OC)c3)n2)cc1 | > 4.5 µg/mL
20 | O=c1[nH]c2ccccc2n1-c1ncnc(Nc2ccc(OC(F)(F)F)cc2)n1 | > 4.5 µg/mL
21 | COc1ccc(CNc2ncnc(Nc3cc(-c4ccco4)n[nH]3)n2)cc1 | > 4.5 µg/mL
22 | O=c1[nH]c2ccccc2n1-c1ncnc(Nc2cccc3ccccc23)n1 | > 4.5 µg/mL
23 | COC(=O)Cc1cccc(Nc2ncnc(-n3c(NCc4ccccn4)nc4ccccc43)n2)c1 | > 4.5 µg/mL
24 | Nc1ncnc(Nc2cc(Cl)ccc2O)n1 | > 4.5 µg/mL

Row | SMILES | IC50
25 | COc1ccc(Nc2ncnc(-n3c(N)nc4ccccc43)n2)cc1O | 2.4 to 3.5 µg/mL (≈ 6.87 to 10 µM)
26 | CN(c1cccc(Cl)c1)c1ncnc(Nc2cccc(CNC(=O)O[C@@H]3CCOC3)c2)n1 | < 0.4 µg/mL
27 | CC(=O)c1ccc(Nc2ncnc(Nc3ccc4c(cnn4Cc4ccccc4)c3)n2)cc1 | < 0.4 µg/mL
28 | O=c1[nH]c2ccccc2n1-c1ncnc(Nc2cccc3ncccc23)n1 | > 4.5 µg/mL
29 | COc1cccc(CCNc2ncnc(Nc3ccc4c(cnn4Cc4ccccc4)c3)n2)c1OC | > 4.5 µg/mL
30 | COc1cc(Nc2ncnc(-n3c(NCc4ccc(F)cc4Cl)nc4ccccc43)n2)cc(OC)c1OC | 3.5 to 4.5 µg/mL (≈ 6.53 to 8.4 µM)
31 | CN(c1cccc(Cl)c1)c1ncnc(Nc2ccc3nn(Cc4ccccc4)cc3c2)n1 | < 0.4 µg/mL
32 | c1csc(-c2ncnc(Nc3ccncc3)n2)c1 | > 4.5 µg/mL
33 | CCOC(=O)C(Cc1cccc(Nc2ncnc(Nc3cc(-c4ccco4)n[nH]3)n2)c1)(NC(C)=O)C(=O)OCC | > 4.5 µg/mL
34 | COc1ccc2c(c1)c(CCNC(C)=O)cn2-c1ncnc(Nc2cc(OC)c(OC)c(OC)c2)n1 | > 4.5 µg/mL
35 | c1ccc(CNc2ncccc2-c2ncnc(Nc3ccc(N4CCOCC4)cc3)n2)cc1 | > 4.5 µg/mL
36 | Cc1cccc(Nc2ncnc(N(C)c3cccc(Cl)c3)n2)c1 | < 0.4 µg/mL
37 | COc1cc(Nc2ncnc(-n3c(NCc4ccc([N+](=O)[O-])cc4)nc4ccccc43)n2)cc(OC)c1OC | > 4.5 µg/mL
38 | COC(=O)c1ccc(-c2cc(Nc3ncnc(NCc4ccccc4OC)n3)[nH]n2)cc1 | > 4.5 µg/mL
39 | Nc1ncnc(Nc2ccc(F)cc2F)n1 | > 4.5 µg/mL
40 | Nc1ncnc(-n2c(N)nc3ccccc32)n1 | > 4.5 µg/mL
41 | COC(=O)c1ccc(-c2cc(Nc3ncnc(Nc4ccc(N5CCOCC5)cc4)n3)[nH]n2)cc1 | 3.5 to 4.5 µg/mL (≈ 7.41 to 9.52 µM)
42 | NC(=O)Cc1cccc(Nc2ncnc(-n3c(NCc4ccccc4)nc4ccccc43)n2)c1 | < 0.4 µg/mL
43 | c1ccc(Cn2ncc3cc(Nc4ncnc(NCCN5CCCC5)n4)ccc32)cc1 | > 4.5 µg/mL
44 | COC(=O)c1ccc(-c2cc(Nc3ncnc(Nc4cc(Cl)cc(Cl)c4)n3)[nH]n2)cc1 | > 4.5 µg/mL
45 | COC(=O)Cc1cccc(Nc2ncnc(-n3c(N)nc4ccccc43)n2)c1 | 2.4 to 3.5 µg/mL (≈ 6.39 to 9.32 µM)
46 | CNS(=O)(=O)Cc1ccc(Nc2ncnc(Nc3cc(-c4ccc(C(=O)OC)cc4)n[nH]3)n2)cc1 | 2.4 to 3.5 µg/mL (≈ 4.85 to 7.08 µM)
47 | c1cc(Cn2ccnn2)cc(Nc2ncnc(-n3c(Nc4ccc5[nH]ccc5c4)nc4ccccc43)n2)c1 | 2.4 to 3.5 µg/mL (≈ 4.8 to 7.01 µM)
48 | c1ccc(COc2cccc(Nc3ncnc(-c4cccs4)n3)c2)cc1 | > 4.5 µg/mL

Second part, the compound after the results:

Row | IC50 | SMILES
49 | > 4.5 µg/mL | COc1cc(Nc2ncnc(Nc3nc(-c4ccccc4)cs3)n2)cc(OC)c1OC
50 | > 4.5 µg/mL | COc1cc(Nc2ncnc(-n3c(NCc4ccccc4Cl)nc4ccccc43)n2)cc(OC)c1OC
51 | < 0.4 µg/mL | COc1cc(Nc2ncnc(Nc3cccc(CC(=O)O)c3)n2)cc(OC)c1OC
52 | 0.4 to 2.4 µg/mL (≈ 0.989 to 5.93 µM) | COc1cc(Nc2ncnc(Nc3cnc4ccccc4c3)n2)cc(OC)c1OC
53 | < 0.4 µg/mL | COc1cc(Nc2ncnc(Nc3cc(Cl)c(O)c(Cl)c3)n2)cc(OC)c1OC
54 | > 4.5 µg/mL | COc1cc(Nc2ncnc(N[C@@H](CO)c3ccccc3)n2)cc(OC)c1OC
55 | > 4.5 µg/mL | COc1cc(Nc2ncnc(-n3ccc4cc(O)ccc43)n2)cc(OC)c1OC
56 | > 4.5 µg/mL | COc1cc(Nc2ncnc(N3CCCC3)n2)cc(OC)c1OC
57 | > 4.5 µg/mL | CCOC(=O)Cc1cn(-c2ncnc(Nc3cc(OC)c(OC)c(OC)c3)n2)c2ccccc12
58 | > 4.5 µg/mL | COc1cccc(NC(=O)Nc2ncnc(Nc3cc(OC)c(OC)c(OC)c3)n2)c1
59 | 0.4 to 2.4 µg/mL (≈ 1.08 to 6.48 µM) | COc1cc(Nc2ncnc(Nc3ccc(O)nc3)n2)cc(OC)c1OC
60 | < 0.4 µg/mL | CCN(c1cccc(C)c1)c1ncnc(Nc2cc(OC)c(OC)c(OC)c2)n1
61 | > 4.5 µg/mL | COc1cc(Nc2ncnc(Nc3ncnc4[nH]cnc34)n2)cc(OC)c1OC
62 | < 0.4 µg/mL | COc1cc(Nc2ncnc(Nc3cccc(O)c3)n2)cc(OC)c1OC
63 | < 0.4 µg/mL | COc1cc(Nc2ncnc(Nc3cccc(F)c3)n2)cc(OC)c1OC
64 | > 4.5 µg/mL | COc1cc(Nc2ncnc(-c3cccnc3Nc3ccc(Cl)cc3C)n2)cc(OC)c1OC
65 | 0.4 to 2.4 µg/mL (≈ 0.815 to 4.89 µM) | COc1cc(Nc2ncnc(Nc3cc(-c4ccc(C(=O)N(C)C)cc4)n[nH]3)n2)cc(OC)c1OC
66 | 2.4 to 3.5 µg/mL (≈ 6.05 to 8.83 µM) | COc1cc(Nc2ncnc(Nc3ccc(N(C)C)cc3)n2)cc(OC)c1OC
67 | > 4.5 µg/mL | COc1cc(Nc2ncnc(-n3c(NCc4ncc[nH]4)nc4ccccc43)n2)cc(OC)c1OC
68 | 0.4 to 2.4 µg/mL (≈ 1.1 to 6.6 µM) | COc1ccc(Nc2ncnc(Nc3ccc4c(c3)CCC4)n2)cc1OC
69 | > 4.5 µg/mL | COc1cc(NC(=O)Nc2ncnc(Nc3cc(OC)c(OC)c(OC)c3)n2)cc(OC)c1
70 | > 4.5 µg/mL | COc1cc(Nc2ncnc(-n3cccc3)n2)cc(OC)c1OC
71 | > 4.5 µg/mL | COc1cc(Nc2ncnc(-c3c(O)n(C)c4ccccc34)n2)cc(OC)c1OC
72 | 0.4 to 2.4 µg/mL (≈ 0.982 to 5.89 µM) | COc1cc(Nc2ncnc(N[C@@H]3CCCc4ccccc43)n2)cc(OC)c1OC
73 | > 4.5 µg/mL | COc1cc(Nc2ncnc(-n3c(NCc4cccc(C)c4)nc4ccccc43)n2)cc(OC)c1OC
74 | > 4.5 µg/mL | COc1cc(Nc2ncnc(-c3cccnc3NCC3CCCCC3)n2)cc(OC)c1OC
